Results taken from patent US7838554B2, “Dihydroxyl compounds and compositions for cholesterol management and related uses” (Esperion Therapeutics, Inc., priority 2003, dated 2010).

Columns and labels:
[1] = Solubility noted on work-up of the tetraol; format: physicochemical
Text: THP-protected bromo alcohol XA was converted into the corresponding Grignard reagent XB following the standard procedure (Vogel, A. I. “Vogel's Textbook of Practical Organic Chemistry”, 5th Edition, Longman, England, 1989, p. 535). Further coupling of this Grignard reagent in situ with succinic dialdehyde Z prepared by acid-catalyzed ring-opening of commercially available 2,5-dimethoxytetrahydrofuran Y (Fakstorp, J.; Raleigh, D.; Schniepp, L. E. J. Am. Chem. Soc., 1950, 72, 869, House, H. O.; Cronin, T. H. J. Org. Chem., 1965, 30, 1061) at 0 to 5° C. occurs smoothly to give the bis(THP-protected) tetraol XC in high yield (92% after flash column chromatography purification). Acidic hydrolysis of XC in methanol/aqueous H2SO4 was completed in two hours to afford tetraol XI). The product is insoluble in dichloromethane and diethyl ether and could be purified by washing with one of these solvents.

obese female Zucker rats = assay: Oral daily treatment of chow fed obese female Zucker rats for fourteen days: serum lipids, glycemic indicators, body weight; format: in vivo, rat; conditions: 14 days, n=4
Experimental: In a number of different experiments, illustrative compounds of the invention are administered daily at a dose of up to 100 mg/kg to chow fed obese female Zucker rats for fourteen days in the morning by oral gavage in 1.5% carboxymethylcellulose/0.2% Tween 20 or 20% ethanol/80% polyethylene glycol (dosing vehicles). Animals are weighed daily. Animals are allowed free access to rodent chow and water throughout the study except on days of blood sampling where food is restricted for six hours prior to blood sampling. Blood glucose is determined after the 6 hour fast in the afternoon without anesthesia from a tail vein. Serum is also prepared from pretreatment blood samples subsequently obtained from the orbital venous plexus (with O2/CO2 anesthesia) and following the fourteenth dose at sacrifice from the heart following O2/CO2 anesthesia. Serums are assayed for lipoprotein cholesterol profiles, triglycerides, total cholesterol, Non-HDL cholesterol, HDL cholesterol, the ratio of HDL cholesterol to that of Non-HDL cholesterol, insulin, non-esterified fatty acids, and beta-hydroxy butyric acid. The percent body weight gain and the ratio of liver to body weight is also determined. These are shown as absolute values or as a percent change of the pretreatment values in Table 1

primary rat hepatocytes = assay: Inhibition of lipid synthesis ([1-14C]-acetate incorporation) in primary cultures of rat hepatocytes; format: cell-based; conditions: Hepatocyte, 4 hours, 0-300 μM
Experimental: Compounds were tested for inhibition of lipid synthesis in primary cultures of rat hepatocytes. Male Sprague-Dawley rats were anesthetized with intraperitoneal injection of sodium pentobarbital (80 mg/kg). Rat hepatocytes were isolated essentially as described by the method of Seglen (Seglen, P. O. Hepatocyte suspensions and cultures as tools in experimental carcinogenesis. J. Toxicol. Environ. Health 1979, 5, 551-560). Hepatocytes were suspended in Dulbecco's Modified Eagles Medium containing 25 mM D-glucose, 14 mM HEPES, 5 mM L-glutamine, 5 mM leucine, 5 mM alanine, 10 mM lactate, 1 mM pyruvate, 0.2% bovine serum albumin, 17.4 mM non-essential amino acids, 20% fetal bovine serum, 100 nM insulin and 20 μg/mL gentamycin) and plated at a density of 1.5×10^5 cells/cm^2 on collagen-coated 96-well plates. Four hours after plating, media was replaced with the same media without serum. […] Lipid synthesis incubation conditions were initially assessed to ensure the linearity of [1-^14C])-acetate incorporation into hepatocyte lipids for up to 4 hours. Hepatocyte lipid synthesis inhibitory activity was assessed during incubations in the presence of 0.25 μCi [1-^14C]-acetate/well (final radiospecific activity in assay is 1 Ci/mol) and 0, 1, 3, 10, 30, 100 or 300 μM of compounds for 4 hours. […] Lipid radioactivity was assessed by scintillation spectroscopy in a Packard TopCount NXT.

| Solubility in water [1] | melting point [°C] | SMILES | % wt. gain (obese female Zucker rats; 100 mg/kg/day oral gavage) [%] | Glucose, Percent of Pre-treatment (obese female Zucker rats; blood glucose after 6 hour fast, 100 mg/kg/day oral) [%] | BHA, Percent of Pre-treatment (obese female Zucker rats; serum beta-hydroxy butyric acid, 100 mg/kg/day oral) [%] | NEFA, Percent of Pre-treatment (obese female Zucker rats; serum non-esterified fatty acids, 100 mg/kg/day oral) [%] | HDL-C/non-HDL-C (obese female Zucker rats; serum ratio, 100 mg/kg/day oral) | TC, Percent of Pre-treatment (obese female Zucker rats; serum total cholesterol, 100 mg/kg/day oral) [%] | TG, Percent of Pre-treatment (obese female Zucker rats; serum triglycerides, 100 mg/kg/day oral) [%] | HDL-C, Percent of Pre-treatment (obese female Zucker rats; serum, 100 mg/kg/day oral) [%] | Insulin, Percent of Pre-treatment (obese female Zucker rats; serum, 100 mg/kg/day oral) [%] | Non-HDL-C, Percent of Pre-treatment (obese female Zucker rats; serum, 100 mg/kg/day oral) [%] | IC50 (primary rat hepatocytes) [nM] |
| --- | --- | --- | --- | --- | --- | --- | --- | --- | --- | --- | --- | --- | --- |
| practically insoluble | 96 to 97 | CC(C)(CO)CCCC(O)CCC(O)CCCC(C)(C)CO (centres unmarked) [XI), 2,2,13,13-Tetramethyltetradecan-1,6,9,14-tetraol] | – | – | – | – | – | – | – | – | – | – | – |
| – | 85 to 86 | CC(C)(CO)CCCC(O)CCCC(O)CCCC(C)(C)CO (centres unmarked) [Compound 6.2.2, 2,2,14,14-Tetramethylpentadecane-1,6,10,15-tetraol] | – | – | – | – | – | – | – | – | – | – | – |
| – | – | CC(C)(CO)CCCC(O)CCC(O)CCCC(C)(C)CO (centres unmarked) [Compound A] | 13 | 11 | 73 | 143 | 1 | 4 | 43 | −19 | 70 | 30 | 1100 |
